Read-outs that look alike come from different tables or passages of the source.
System: HCV pseudoparticles (genotype 1a HCV E1 and E2 envelope, H77C isolate)
Assay: HCV pseudoparticle infection assay (luciferase reporter, entry into Huh7 cells)
Assay type: cell-based
Settings: Hepatitis C virus, Huh-7, 48 h
[1] = read-out: Activity Range (EC50)

FC(F)(F)COc1nc2nc(n1)Nc1cnn(c1)CCOCCOCCOc1ccc(cc1)CN2 [Example 2002]
EC50 [1]: 0.1 to 500 nM

FC(F)(F)COc1nc2nc(n1)Nc1cnn(c1)CCNCCCOc1ccc(cc1)CN2 [Example 2006]
EC50 [1]: 0.1 to 500 nM

CC(C)(C)NC(=O)N1CCCOc2ccc(cc2)CNc2nc(nc(OCC(F)(F)F)n2)Nc2cnn(c2)CC1 [Example 2007]
EC50: 105 nM
EC50 [1]: 0.1 to 500 nM

FC(F)(F)COc1nc2nc(n1)Nc1cnn(c1)CCCCCCOc1ccc(cc1)CN2 [Example 3001]
EC50 [1]: 0.1 to 500 nM

Reference: patent US8933066B2, “Compounds for the treatment of hepatitis C” (priority 2011, dated 2015)
